We go through 24 molecules from patent EP1144365B1 (TANABE SEIYAKU CO., LTD., priority 1998, dated 2000).

Where a name gives a salt, the structure may show the parent alone.

Assay [1] has as its target T1, α4β1 integrin (Homo sapiens, UniProt P05556+P13612).
T1 construct: a T-cell line, Jurkat, known to express the α4β1 integrin; host or cells: Jurkat T-cell line
Description: Jurkat-Endothelial Cell Adhesion Assay (Jurkat EC). Format: cell-based. To be noted: Jurkat cell adhesion to IL-1 stimulated endothelial cell monolayers. A digest of the protocol:
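BCECF-loaded Jurkat T cells (5 x 10^5) mixed with compound, generally 100, 20, 5 and 1.25 µM, in DMEM-HSA, added to HUVEC monolayers prestimulated 4 h with 0.1 ng/ml IL-1. After washing, adherent-cell fluorescence read; % adhesion relative to no-compound control set at 100%.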

Assay [2] addresses T2, α4β1 (Homo sapiens, UniProt P05556+P13612).
T2 construct: 100 µl of Jurkat cells (2.5 x 10^6 cells/ml) in DMEM plus BSA; host or cells: Jurkat T-cell line
Description: Jurkat-CS-1 assay. Format: cell-based. To be noted: Jurkat cell adhesion to immobilized CS-1 derived peptide.

T2 sequence (P13612 34-1032): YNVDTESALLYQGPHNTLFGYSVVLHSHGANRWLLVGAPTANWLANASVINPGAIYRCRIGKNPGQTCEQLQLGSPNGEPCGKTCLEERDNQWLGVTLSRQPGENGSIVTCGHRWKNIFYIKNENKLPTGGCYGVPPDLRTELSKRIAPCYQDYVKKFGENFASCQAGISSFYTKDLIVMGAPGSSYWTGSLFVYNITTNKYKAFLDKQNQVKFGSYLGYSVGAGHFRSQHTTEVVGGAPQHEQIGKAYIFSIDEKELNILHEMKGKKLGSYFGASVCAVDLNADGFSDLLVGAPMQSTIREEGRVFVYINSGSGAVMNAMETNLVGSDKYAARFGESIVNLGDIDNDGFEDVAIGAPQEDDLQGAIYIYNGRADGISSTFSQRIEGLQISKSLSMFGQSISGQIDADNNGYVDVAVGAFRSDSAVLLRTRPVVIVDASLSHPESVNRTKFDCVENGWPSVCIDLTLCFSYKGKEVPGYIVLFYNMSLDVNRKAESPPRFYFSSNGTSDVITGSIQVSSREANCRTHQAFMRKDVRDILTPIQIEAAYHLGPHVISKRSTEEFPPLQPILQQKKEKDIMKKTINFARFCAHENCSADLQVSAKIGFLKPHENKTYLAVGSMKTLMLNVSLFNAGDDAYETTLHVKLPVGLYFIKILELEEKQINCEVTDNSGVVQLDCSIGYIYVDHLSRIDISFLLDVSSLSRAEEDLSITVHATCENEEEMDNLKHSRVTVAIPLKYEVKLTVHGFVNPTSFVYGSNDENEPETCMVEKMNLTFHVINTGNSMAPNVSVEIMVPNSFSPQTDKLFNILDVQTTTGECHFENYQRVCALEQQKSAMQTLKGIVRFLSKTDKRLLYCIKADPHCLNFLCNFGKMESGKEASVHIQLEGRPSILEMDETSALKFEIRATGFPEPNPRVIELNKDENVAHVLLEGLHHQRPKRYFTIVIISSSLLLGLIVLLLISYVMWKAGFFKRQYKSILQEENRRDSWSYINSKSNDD
T2 sequence (P05556 21-798): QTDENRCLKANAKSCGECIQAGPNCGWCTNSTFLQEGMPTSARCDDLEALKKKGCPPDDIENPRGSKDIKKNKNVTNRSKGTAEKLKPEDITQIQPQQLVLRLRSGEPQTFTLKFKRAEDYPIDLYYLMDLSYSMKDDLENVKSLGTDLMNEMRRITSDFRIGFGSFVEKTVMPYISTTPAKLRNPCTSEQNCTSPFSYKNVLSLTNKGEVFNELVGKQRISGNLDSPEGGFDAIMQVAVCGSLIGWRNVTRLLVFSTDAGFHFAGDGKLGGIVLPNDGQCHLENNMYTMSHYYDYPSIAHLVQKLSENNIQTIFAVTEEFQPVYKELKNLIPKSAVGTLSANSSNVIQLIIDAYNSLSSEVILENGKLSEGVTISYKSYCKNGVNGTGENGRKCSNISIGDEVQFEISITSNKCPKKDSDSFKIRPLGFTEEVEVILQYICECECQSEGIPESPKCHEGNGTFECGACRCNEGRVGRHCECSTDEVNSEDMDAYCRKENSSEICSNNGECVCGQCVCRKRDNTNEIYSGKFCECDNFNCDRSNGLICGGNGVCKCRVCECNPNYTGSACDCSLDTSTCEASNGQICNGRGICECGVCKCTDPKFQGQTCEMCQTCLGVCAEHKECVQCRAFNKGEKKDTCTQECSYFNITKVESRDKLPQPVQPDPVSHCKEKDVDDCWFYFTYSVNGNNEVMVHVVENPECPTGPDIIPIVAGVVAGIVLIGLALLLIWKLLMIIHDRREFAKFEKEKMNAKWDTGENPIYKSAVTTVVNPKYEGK
T1 sequence (P13612 34-1032): as the sequence (P13612 34-1032) above
T1 sequence (P05556 21-798): as the sequence (P05556 21-798) above

Consider `CC(=O)[C@H]1C[C@@H](C(=O)N[C@@H](Cc2ccc(NC(=O)c3c(Cl)cccc3Cl)cc2)C(=O)O)C1(C)C` [Example 101, (1R-cis)-N-[(3-Acetyl-2,2-dimethyleyclobutyl)carbonyl]-4-[(2,6-dichlorobenzoyl)-amino]-L-phenylalanine], for which the IC50 in assay [1] fell in the range of 800 to 5000 nM; in assay [2], 80 to 500 nM.

Regarding `CC1(C)[C@H](C(=O)O)C[C@H]1C(=O)N[C@@H](Cc1ccc(NC(=O)c2c(Cl)cccc2Cl)cc1)C(=O)O` [Example 102, (1R-trans)-N-[(3-Carboxy-2,2-dimethylcyclobutyl)carbonyl]-4-[(2,6-dichlorobenzoyl)amino]-L-phenylalanine], the figures for the half-maximal inhibitory concentration (IC50) in assay [1] and in assay [2] were at most 800 nM and 80 to 500 nM, respectively.

As to `CC1(C)[C@@H](C(=O)O)C[C@H]1C(=O)N[C@@H](Cc1ccc(NC(=O)c2c(Cl)cccc2Cl)cc1)C(=O)O` [Example 103, (1R-cis)-N-[(3-Carboxy-2,2-dimethylcyclobutyl)carbonyl]-4-[(2,6-dichlorobenzoyl)amino]-L-phenylalanine], the half-inhibitory concentration (IC50) in assay [1] was at most 800 nM; in assay [2], 80 to 500 nM.

For `CC(=O)[C@H]1C[C@H](C(=O)N[C@@H](Cc2ccc(NC(=O)c3cccnc3Cl)cc2)C(=O)O)C1(C)C` [Example 104, (1S-trans)-N-[(3-Acetyl-2,2-dimethylcyclobutyl)carbonyl]-4-[[(2-chloro-3-pyridinyl)carbonyl]amino]-L-phenylalanine], the IC50 fell in the range of 800 to 5000 nM in assay [1] and 500 to 1000 nM in assay [2].

For `CC(=O)[C@@H]1C[C@H](C(=O)N[C@@H](Cc2ccc(NC(=O)c3cccnc3Cl)cc2)C(=O)O)C1(C)C` [Example 105, (1S-cis)-N-[(3-Acetyl-2,2-dimethylcyclobutyl)carbonyl]-4-[[(2-chloro-3-pyridinyl)carbonyl]amino]-L-phenylalanine], the IC50 in assay [1] was 800 to 5000 nM; in assay [2], 80 to 500 nM.

In the case of `CC(=O)[C@H]1C[C@H](C(=O)N[C@@H](Cc2ccc(NC(=O)c3ccc(Cl)nc3Cl)cc2)C(=O)O)C1(C)C` [Example 106, (1S-trans)-N-[(3-Acetyl-2,2-dimethylcyclobutyl)carbonyl]-4-[[(2,6-dichloro-3-pyridinyl)carbonyl]amino]-L-phenylalanine], the results for the concentration for half-maximal inhibition (IC50) in assay [1] and in assay [2] were 800 to 5000 nM and 80 to 500 nM, respectively.

On to `CC(=O)[C@@H]1C[C@H](C(=O)N[C@@H](Cc2ccc(NC(=O)c3ccc(Cl)nc3Cl)cc2)C(=O)O)C1(C)C` [Example 107, (1S-cis)-N-[(3-Acetyl-2,2-dimethylcyclobutyl)carbonyl]-4-[[(2,6-dichloro-3-pyridinyl)carbonyl]amino]-L-phenylalanine], for which the concentration for half-maximal inhibition (IC50) in assay [1] was in the range of 800 to 5000 nM; in assay [2], 80 to 500 nM.

With `O=C(Nc1ccc(C[C@H](NC(=O)N2CCCC(C(=O)O)C2)C(=O)O)cc1)c1c(Cl)cccc1Cl` (stereo partly drawn) [Example 114, 1-[[[(1S)-1-carboxy-2-[4-[(2,6-dichlorobenzoyl)amino]phenyl]ethyl]amino]carbonyl]-3-piperidinecarboxylic acid], the IC50 was at most 800 nM in assay [1] and 80 to 500 nM in assay [2].

On to `O=C(Nc1ccc(C[C@H](NC(=O)N2CCCC(C(=O)O)C2)C(=O)O)cc1)c1c(Cl)cccc1Cl` (stereo partly drawn) [Example 115, 1-[[((1S)-1-carboxy-2-[4-[(2,6-dichlorobenzoyl)amino]phenyl]ethyl)amino]carbonyl]-3-piperidinecarboxylic acid], for which the figures for the IC50 in assay [1] and in assay [2] were 800 to 5000 nM and 80 to 500 nM, respectively.

`O=C(Nc1ccc(C[C@H](NC(=O)N2CCCC(C(=O)O)C2)C(=O)O)cc1)c1c(Cl)cccc1Cl` (stereo partly drawn) [Example 116, 1-[[[(1S)-1-carboxy-2-[4-[(2,6-dichlorobenzoyl)amino]phenyl]ethyl]amino]carbonyl]-3-piperidinecarboxylic acid]: the IC50 in assay [1] is at most 800 nM; in assay [2], 80 to 500 nM.

On to `O=C(Nc1ccc(C[C@H](NC(=S)N2CCCC(C(=O)O)C2)C(=O)O)cc1)c1c(Cl)cccc1Cl` (stereo partly drawn) [Example 117, 1-[[[(1S)-1-carboxy-2-[4-[(2,6-dichlorobenzoyl)amino]phenyl]ethyl]amino]thiocarbonyl]-3-piperidinecarboxylic acid], for which the IC50 in assay [1] was at most 800 nM; in assay [2] it was 80 to 500 nM.

As for `CC1=C(C(=O)N[C@@H](Cc2ccc(NC(=O)c3c(Cl)cccc3Cl)cc2)C(=O)O)C(C)(C)CC/C1=C\C(=O)O` [Example 118, N-[[(3E)-3-Carboxymethylene-2,6,6-trimethyl-1-cyclohexen-1-yl]carbonyl]-4-[(2,6-dichlorobenzoyl)amino]-L-phenylalanine], the values for the IC50 in assay [1] and in assay [2] were at most 800 nM and at most 80 nM, respectively.

With `CC1=C(C(=O)N[C@@H](Cc2ccc(OCc3c(Cl)cccc3Cl)cc2)C(=O)O)C(C)(C)CC/C1=C\C(=O)O` [Example 119, N-[[(3E)-3-Carboxymethylene-2,6,6-trimethyl-1-cyclohexen-1-yl]carbonyl]-4-O-(2,6-dichlorophenylmethyl)-L-tyrosine], the half-inhibitory concentration (IC50) is at most 800 nM in assay [1] and at most 80 nM in assay [2].

On to `CC1=C(C(=O)N[C@@H](Cc2ccc(NC(=O)c3c(Cl)cccc3Cl)cc2)C(=O)O)C(C)(C)CC/C1=C\C#N` [Example 120, N-[[(3E)-3-Cyanomethylene-2,6,6-trimethyl-1-cyclohexen-1-yl]carbonyl]-4-[(2,6-dichlorobenzoyl)amino]-L-phenylalanine], for which the IC50 in assay [1] is at most 800 nM; in assay [2], at most 80 nM.

On to `O=C(/C=C/c1ccc(C(=O)O)cc1)N[C@@H](Cc1ccc(NC(=O)c2c(Cl)cccc2Cl)cc1)C(=O)O` [Example 123], for which the IC50 in assay [1] lay within 5000 to 10000 nM; in assay [2] it was 500 to 1000 nM.

Take `O=C(O)/C=C/c1cccc(C(=O)N[C@@H](Cc2ccc(NC(=O)c3c(Cl)cccc3Cl)cc2)C(=O)O)c1` [Example 124, N-[[3-[(E)-3-Hydroxy-3-oxo-1-propenyl]phenyl]carbonyl]-4-[(2,6-dichlorobenzoyl)amino]-L-phenylalanine]: the 50% inhibitory concentration (IC50) was in the range of 800 to 5000 nM in assay [1] and 500 to 1000 nM in assay [2].

Regarding `O=C(O)/C=C/c1ccc(C(=O)N[C@@H](Cc2ccc(NC(=O)c3c(Cl)cccc3Cl)cc2)C(=O)O)cc1` [Example 125, N-[[4-[(E)-3-Hydroxy-3-oxo-1-propenyl]phenyl]carbonyl]-4-[(2,6-dichlorobenzoyl)amino] -L-phenylalanine], the concentration for half-maximal inhibition (IC50) in assay [1] was 800 to 5000 nM; in assay [2], at most 80 nM.

In the case of `O=C(O)C=C1CCC(C(=O)N[C@@H](Cc2ccc(NC(=O)c3c(Cl)cccc3Cl)cc2)C(=O)O)CC1` (stereo partly drawn) [Example 126, N-[[4-(Carboxymethylene)cyclohexyl]carbonyl]-4-[(2,6-dichlorobenzoyl)amino]-L-phenylalanine], the IC50 was 800 to 5000 nM in assay [1] and at most 80 nM in assay [2].

As to `O=C(C=C1CCC(C(=O)O)CC1)N[C@@H](Cc1ccc(NC(=O)c2c(Cl)cccc2Cl)cc1)C(=O)O` (stereo partly drawn) [Example 127, N-[4-Carboxy-1-cyclohexylideneacetyl]-4-[(2,6-dichlorobenzoyl)amino]-L-phenylalanine], the IC50 in assay [1] lay in the range of 800 to 5000 nM; in assay [2], 80 to 500 nM.

With `CC1(C)CC(C(=O)O)CC/C1=C\C(=O)N[C@@H](Cc1ccc(NC(=O)c2c(Cl)cccc2Cl)cc1)C(=O)O` (stereo partly drawn) [Example 128, N-[(1E)-4-Carboxy-2,2-dimethyl-1-cyclohexylideneacetyl]-4-[(2,6-dichlorobenzoyl)amino]-L-phenylalanine], the IC50 in assay [1] was in the range of 800 to 5000 nM; in assay [2], 80 to 500 nM.

`COC(=O)[C@H](Cc1ccc(NC(=O)c2c(Cl)cccc2Cl)cc1)NC(=O)c1cccc2c1CCC/C2=C/C(=O)O` [Example 130, N-[[(5Z)-5-Carboxymethylene-7,8-dihydro-1(6H)-naphthyl]carbonyl]-4-[(2,6-dichlorobenzoyl)amino]-L-phenylalanine methyl ester]: the IC50 was in the range of 800 to 5000 nM in assay [1] and 500 to 1000 nM in assay [2].

On to `O=C(O)/C=C1/CCCc2c(C(=O)N[C@@H](Cc3ccc(NC(=O)c4c(Cl)cccc4Cl)cc3)C(=O)O)cccc21` [Example 131, N-[[(5Z)-5-Carboxymethylene-7,8-dihydro-1(6H)-naphthyl]carbonyl]-4-[(2,6-dichlorobenzoyl)amino]-L-phenylalanine], for which the half-inhibitory concentration (IC50) in assay [1] was at most 800 nM; in assay [2] it was at most 80 nM.

For `O=C(O)/C=C1\CCCc2c(C(=O)N[C@@H](Cc3ccc(NC(=O)c4c(Cl)cccc4Cl)cc3)C(=O)O)cccc21` [Example 134, N-[[(5E)-5-Carboxymethylene-7,8-dihydro-1(6H)-naphthyl]carbonyl]-4-[(2,6-dichlorobenzoyl)amino]-L-phenylalanine], the concentration for half-maximal inhibition (IC50) in assay [1] was at most 800 nM; in assay [2], 80 to 500 nM.

For `O=C(O)/C=C1\CCCc2cc(C(=O)N[C@@H](Cc3ccc(NC(=O)c4c(Cl)cccc4Cl)cc3)C(=O)O)ccc21` [Example 135, N-[[(5E)-5-Carboxymethylene-7,8-dihydro-2(6H)-naphthyl]carbonyl]-4-[(2,6-dichlorobenzoyl)amino]-L-phenylalanine sodium salt], the IC50 lay in the range of 5000 to 10000 nM in assay [1] and 500 to 1000 nM in assay [2].
